Consider 12 molecules from ChEMBL document CHEMBL3991601, “The target landscape of clinical kinase drugs” (Science, 2017).

In experiment [1] the target is T1, STE20-related kinase adapter protein alpha (Homo sapiens, UniProt Q7RTN6).
T1 sequence (Q7RTN6 whole entry): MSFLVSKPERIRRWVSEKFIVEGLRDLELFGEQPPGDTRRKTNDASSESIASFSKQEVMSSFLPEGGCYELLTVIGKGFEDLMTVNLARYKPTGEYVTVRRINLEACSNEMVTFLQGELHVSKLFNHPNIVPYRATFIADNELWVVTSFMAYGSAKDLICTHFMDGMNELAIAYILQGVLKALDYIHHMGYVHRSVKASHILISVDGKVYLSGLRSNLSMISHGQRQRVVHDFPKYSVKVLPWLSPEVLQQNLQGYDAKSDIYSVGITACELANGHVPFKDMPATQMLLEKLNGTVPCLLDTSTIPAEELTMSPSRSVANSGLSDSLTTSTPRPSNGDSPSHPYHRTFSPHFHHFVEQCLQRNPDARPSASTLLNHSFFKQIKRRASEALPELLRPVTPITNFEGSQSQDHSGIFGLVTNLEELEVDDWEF

Experiment [2] deals with cAMP-dependent protein kinase catalytic subunit gamma (Homo sapiens, UniProt P22612).
The target of experiment [3] is T2, Glycine--tRNA ligase (Homo sapiens, UniProt P41250).
T2 sequence (P41250 whole entry): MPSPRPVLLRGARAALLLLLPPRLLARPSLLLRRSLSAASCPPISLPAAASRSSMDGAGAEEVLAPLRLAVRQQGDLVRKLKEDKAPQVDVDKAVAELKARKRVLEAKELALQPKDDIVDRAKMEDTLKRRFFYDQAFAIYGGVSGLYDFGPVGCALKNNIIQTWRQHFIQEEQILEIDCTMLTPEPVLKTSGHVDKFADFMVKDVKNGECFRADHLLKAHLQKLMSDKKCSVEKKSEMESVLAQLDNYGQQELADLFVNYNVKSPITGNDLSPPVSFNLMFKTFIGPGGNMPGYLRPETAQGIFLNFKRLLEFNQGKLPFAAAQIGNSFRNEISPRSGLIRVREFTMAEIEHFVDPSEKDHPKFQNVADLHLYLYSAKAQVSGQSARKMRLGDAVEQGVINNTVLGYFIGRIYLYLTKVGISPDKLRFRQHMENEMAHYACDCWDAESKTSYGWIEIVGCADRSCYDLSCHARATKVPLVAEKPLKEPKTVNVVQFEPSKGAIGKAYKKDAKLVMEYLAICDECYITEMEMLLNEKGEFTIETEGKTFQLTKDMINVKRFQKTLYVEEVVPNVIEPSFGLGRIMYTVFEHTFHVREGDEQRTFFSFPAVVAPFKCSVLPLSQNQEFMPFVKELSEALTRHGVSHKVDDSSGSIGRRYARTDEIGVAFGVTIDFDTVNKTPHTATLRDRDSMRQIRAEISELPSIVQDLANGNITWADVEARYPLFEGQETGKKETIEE

The target in experiment [4] is Serine/threonine-protein kinase 16 (Homo sapiens, UniProt O75716).
Experiment [5] has as its target Calcium/calmodulin-dependent protein kinase kinase 2 (Homo sapiens, UniProt Q96RR4).
The target of experiment [6] is Ribosomal protein S6 kinase alpha-3 (Homo sapiens, UniProt P51812).
Experiment [7] has as its target Adenylate kinase 2, mitochondrial (Homo sapiens, UniProt P54819).
Experiment [8] deals with T3, Cyclin-G-associated kinase (Homo sapiens, UniProt O14976).
T3 sequence (O14976 whole entry): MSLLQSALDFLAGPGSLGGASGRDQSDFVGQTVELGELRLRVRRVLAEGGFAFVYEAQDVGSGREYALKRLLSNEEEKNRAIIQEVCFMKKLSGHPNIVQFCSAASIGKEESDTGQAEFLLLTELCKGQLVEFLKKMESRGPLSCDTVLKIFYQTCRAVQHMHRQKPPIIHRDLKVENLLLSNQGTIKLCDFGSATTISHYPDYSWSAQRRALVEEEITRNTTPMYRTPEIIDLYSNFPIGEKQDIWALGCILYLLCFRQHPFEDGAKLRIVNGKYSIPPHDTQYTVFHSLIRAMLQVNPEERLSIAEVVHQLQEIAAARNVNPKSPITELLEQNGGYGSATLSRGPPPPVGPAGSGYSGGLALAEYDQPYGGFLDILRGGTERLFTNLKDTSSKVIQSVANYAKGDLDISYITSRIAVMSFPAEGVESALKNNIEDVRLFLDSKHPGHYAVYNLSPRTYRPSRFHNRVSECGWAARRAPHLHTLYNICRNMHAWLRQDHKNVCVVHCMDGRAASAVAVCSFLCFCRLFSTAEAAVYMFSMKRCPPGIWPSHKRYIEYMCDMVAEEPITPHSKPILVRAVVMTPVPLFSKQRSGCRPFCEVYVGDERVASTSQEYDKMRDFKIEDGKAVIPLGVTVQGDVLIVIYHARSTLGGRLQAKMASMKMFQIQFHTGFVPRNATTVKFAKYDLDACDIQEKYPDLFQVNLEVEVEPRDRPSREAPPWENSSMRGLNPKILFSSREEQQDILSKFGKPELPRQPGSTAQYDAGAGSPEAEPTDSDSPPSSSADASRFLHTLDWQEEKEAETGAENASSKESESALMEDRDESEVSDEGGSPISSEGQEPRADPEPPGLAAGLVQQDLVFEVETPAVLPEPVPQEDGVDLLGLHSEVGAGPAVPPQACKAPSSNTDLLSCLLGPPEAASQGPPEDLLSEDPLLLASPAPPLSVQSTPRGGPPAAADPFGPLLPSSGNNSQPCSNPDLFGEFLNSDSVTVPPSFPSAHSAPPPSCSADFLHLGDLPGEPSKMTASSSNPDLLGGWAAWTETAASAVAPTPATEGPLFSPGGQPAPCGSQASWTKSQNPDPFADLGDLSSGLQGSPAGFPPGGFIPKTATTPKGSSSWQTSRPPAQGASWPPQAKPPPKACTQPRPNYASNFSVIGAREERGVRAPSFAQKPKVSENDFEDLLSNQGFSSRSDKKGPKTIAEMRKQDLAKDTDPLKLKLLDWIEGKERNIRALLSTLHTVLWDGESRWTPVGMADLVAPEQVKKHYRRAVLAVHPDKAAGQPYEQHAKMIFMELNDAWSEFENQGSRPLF

For experiment [9], the target named is Serine/threonine-protein kinase/endoribonuclease IRE1 (Homo sapiens, UniProt O75460).

Where a name gives a salt, the structure may show the parent alone. Activity calls are given as the source filed them. For most assays here, no stated cut-off is given here; in the data, actives have a measured Kd and inactives only a lower limit.

Sequence of Serine/threonine-protein kinase/endoribonuclease IRE1 (O75460 whole entry): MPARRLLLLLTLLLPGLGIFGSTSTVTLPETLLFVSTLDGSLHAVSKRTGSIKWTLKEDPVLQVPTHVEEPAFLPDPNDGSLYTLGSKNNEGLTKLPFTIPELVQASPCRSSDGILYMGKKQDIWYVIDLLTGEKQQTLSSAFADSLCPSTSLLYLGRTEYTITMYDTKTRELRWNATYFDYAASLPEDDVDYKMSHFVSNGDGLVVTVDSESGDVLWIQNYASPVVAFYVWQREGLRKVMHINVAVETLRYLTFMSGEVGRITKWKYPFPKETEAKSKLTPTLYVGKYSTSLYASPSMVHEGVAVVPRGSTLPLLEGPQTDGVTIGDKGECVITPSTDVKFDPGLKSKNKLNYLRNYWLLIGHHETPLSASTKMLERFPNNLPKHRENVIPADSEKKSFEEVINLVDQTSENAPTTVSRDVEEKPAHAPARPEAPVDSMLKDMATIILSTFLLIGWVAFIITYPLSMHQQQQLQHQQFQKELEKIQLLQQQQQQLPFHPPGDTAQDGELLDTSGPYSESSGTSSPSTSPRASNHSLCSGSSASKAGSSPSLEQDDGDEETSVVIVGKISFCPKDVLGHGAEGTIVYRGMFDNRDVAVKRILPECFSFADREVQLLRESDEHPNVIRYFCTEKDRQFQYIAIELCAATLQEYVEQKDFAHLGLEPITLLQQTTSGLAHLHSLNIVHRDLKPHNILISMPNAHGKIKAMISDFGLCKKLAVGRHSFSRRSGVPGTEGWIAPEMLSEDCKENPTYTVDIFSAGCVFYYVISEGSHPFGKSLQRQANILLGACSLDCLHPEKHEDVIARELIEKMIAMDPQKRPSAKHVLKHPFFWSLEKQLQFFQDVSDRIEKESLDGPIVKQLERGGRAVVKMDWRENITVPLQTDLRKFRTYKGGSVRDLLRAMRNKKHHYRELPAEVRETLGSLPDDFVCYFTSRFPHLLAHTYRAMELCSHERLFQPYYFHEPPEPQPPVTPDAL
Sequence of Ribosomal protein S6 kinase alpha-3 (P51812 whole entry): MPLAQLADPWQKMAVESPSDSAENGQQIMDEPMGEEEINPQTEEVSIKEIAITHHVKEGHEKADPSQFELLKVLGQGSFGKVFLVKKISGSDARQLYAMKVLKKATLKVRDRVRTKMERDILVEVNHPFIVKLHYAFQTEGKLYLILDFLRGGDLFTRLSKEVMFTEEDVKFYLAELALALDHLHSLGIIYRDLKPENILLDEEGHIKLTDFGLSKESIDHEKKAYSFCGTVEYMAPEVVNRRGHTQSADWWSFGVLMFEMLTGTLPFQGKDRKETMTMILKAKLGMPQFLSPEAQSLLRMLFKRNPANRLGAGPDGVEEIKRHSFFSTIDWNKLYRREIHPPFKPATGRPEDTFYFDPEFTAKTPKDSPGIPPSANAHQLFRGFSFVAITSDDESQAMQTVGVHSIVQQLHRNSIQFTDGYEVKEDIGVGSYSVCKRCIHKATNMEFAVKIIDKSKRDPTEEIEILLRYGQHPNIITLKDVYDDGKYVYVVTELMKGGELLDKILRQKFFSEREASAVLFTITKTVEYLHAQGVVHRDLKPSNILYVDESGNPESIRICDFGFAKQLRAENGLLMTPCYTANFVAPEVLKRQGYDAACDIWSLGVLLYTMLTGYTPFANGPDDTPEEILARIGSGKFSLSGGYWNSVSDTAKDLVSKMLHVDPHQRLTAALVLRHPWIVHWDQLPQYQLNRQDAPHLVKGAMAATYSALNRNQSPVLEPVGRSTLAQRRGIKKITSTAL
Sequence of Calcium/calmodulin-dependent protein kinase kinase 2 (Q96RR4 whole entry): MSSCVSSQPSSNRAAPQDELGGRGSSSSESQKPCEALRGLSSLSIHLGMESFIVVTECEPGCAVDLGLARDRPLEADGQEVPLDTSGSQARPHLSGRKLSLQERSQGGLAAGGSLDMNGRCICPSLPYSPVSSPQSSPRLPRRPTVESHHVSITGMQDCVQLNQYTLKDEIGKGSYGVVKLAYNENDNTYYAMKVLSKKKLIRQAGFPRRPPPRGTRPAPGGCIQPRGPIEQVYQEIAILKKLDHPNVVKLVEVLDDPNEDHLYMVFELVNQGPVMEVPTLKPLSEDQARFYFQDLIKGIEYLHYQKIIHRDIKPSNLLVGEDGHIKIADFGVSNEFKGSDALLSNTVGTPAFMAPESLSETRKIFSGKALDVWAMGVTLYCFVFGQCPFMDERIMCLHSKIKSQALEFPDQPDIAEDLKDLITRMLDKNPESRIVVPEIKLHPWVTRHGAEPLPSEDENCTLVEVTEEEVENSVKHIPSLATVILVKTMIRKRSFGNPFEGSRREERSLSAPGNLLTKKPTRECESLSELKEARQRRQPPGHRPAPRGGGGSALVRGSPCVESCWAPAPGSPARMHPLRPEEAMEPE
Sequence of cAMP-dependent protein kinase catalytic subunit gamma (P22612 whole entry): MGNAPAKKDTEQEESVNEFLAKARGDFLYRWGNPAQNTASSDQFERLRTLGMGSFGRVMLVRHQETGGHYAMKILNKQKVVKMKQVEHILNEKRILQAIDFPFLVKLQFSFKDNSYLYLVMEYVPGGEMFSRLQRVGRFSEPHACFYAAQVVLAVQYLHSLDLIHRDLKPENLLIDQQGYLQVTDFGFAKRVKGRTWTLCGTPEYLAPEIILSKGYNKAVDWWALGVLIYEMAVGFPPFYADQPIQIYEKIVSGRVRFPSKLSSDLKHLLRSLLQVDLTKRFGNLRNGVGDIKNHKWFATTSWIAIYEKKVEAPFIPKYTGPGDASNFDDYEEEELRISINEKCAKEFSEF
Sequence of Serine/threonine-protein kinase 16 (O75716 whole entry): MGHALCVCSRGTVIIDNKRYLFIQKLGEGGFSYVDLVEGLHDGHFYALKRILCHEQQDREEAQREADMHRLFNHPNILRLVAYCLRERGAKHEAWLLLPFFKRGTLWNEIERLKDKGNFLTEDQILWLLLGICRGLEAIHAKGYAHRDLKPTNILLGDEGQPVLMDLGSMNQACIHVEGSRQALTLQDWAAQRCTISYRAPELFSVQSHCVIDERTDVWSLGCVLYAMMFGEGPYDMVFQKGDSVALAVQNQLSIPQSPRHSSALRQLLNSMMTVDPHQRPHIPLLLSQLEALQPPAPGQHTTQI

One may read the Kd as the concentration at which binding is half-saturated. Turning to `COCC(=O)NC/C=C/c1ccc2ncnc(Nc3ccc(Oc4ccc(C)nc4)c(C)c3)c2c1` [CP-724714], the Kd in [1], in experiment [2], in experiment [3], in [4], in [5] and in experiment [6] was > 30 µM (inactive) in each case. The Kd in experiment [7], in [8] and in experiment [9] was > 30 µM (inactive) in each case.

As for `C#Cc1cccc(Nc2ncnc3cc(OC)c(OCCCCCCC(=O)NO)cc23)c1` [CUDC-101], the Kd in [1], in [2], in experiment [3], in experiment [4], in experiment [5] and in experiment [6] was > 30 µM (inactive) in each case. Besides, the Kd in experiment [7] is 1.04 µM (active); in [8], 0.482 µM (active); in experiment [9], > 30 µM (inactive).

In the case of `CCS(=O)(=O)N1CCN(c2ccc(Nc3ncc(C(N)=O)c(NC4CC4)n3)cc2)CC1` [Cerdulatinib Hydrochloride], the Kd is > 30 µM (inactive) in experiment [1]; > 30 µM (inactive) in experiment [2]; > 30 µM (inactive) in [3]; > 30 µM (inactive) in experiment [4]; > 30 µM (inactive) in experiment [5]; 5.89 µM (active) in [6]. Besides, the Kd was > 30 µM (inactive) in experiment [7], 0.552 µM (active) in experiment [8] and > 30 µM (inactive) in [9].

With `O=C(Nc1nc2cccc(-c3ccc(CN4CCS(=O)(=O)CC4)cc3)n2n1)C1CC1` [FILGOTINIB], the Kd is > 30 µM (inactive) in experiment [1]; > 30 µM (inactive) in experiment [2]; > 30 µM (inactive) in experiment [3]; > 30 µM (inactive) in experiment [4]; 3.63 µM (active) in experiment [5]; > 30 µM (inactive) in experiment [6]. In addition, the Kd in experiment [7], in experiment [8] and in [9] was > 30 µM (inactive) throughout.

Take `Cc1cccc(-c2nn3c(c2-c2ccnc4ccc(C(N)=O)cc24)CCC3)n1` [GALUNISERTIB]: the Kd in experiment [1], in experiment [2], in experiment [3], in [4], in experiment [5] and in [6] was > 30 µM (inactive) throughout. Further, the Kd in experiment [7] is > 30 µM (inactive); in experiment [8], 0.495 µM (active); in experiment [9], > 30 µM (inactive).

In the case of `COc1ccc(S(=O)(=O)N(C(C)=O)c2ccccc2/C=C/c2cc[n+]([O-])cc2)cc1` [HMN-214], the Kd in experiment [1], in experiment [2], in [3], in experiment [4], in experiment [5] and in [6] was > 30 µM (inactive) throughout. The Kd in experiment [7], in experiment [8] and in experiment [9] was > 30 µM (inactive) throughout.

For the molecule `O=C(Nc1cc(C(F)(F)F)cc(C(F)(F)F)c1)c1cc(Cl)ccc1O` [IMD-0354], the Kd in experiment [1], in [2], in experiment [3], in experiment [4], in [5] and in experiment [6] was > 30 µM (inactive) throughout. In addition, the Kd in [7], in experiment [8] and in experiment [9] was > 30 µM (inactive) in each case.

For the molecule `CNC(=O)c1cccc2cc(Oc3ccnc4cc(OCC5(N)CC5)c(OC)cc34)ccc12` [LUCITANIB], the Kd in experiment [1], in [2], in [3], in [4], in experiment [5] and in experiment [6] was > 30 µM (inactive) throughout. Also, the Kd in experiment [7], in [8] and in experiment [9] was > 30 µM (inactive) throughout.

Consider `NC1(c2ccc(-c3nc4ccn5c(=O)[nH]nc5c4cc3-c3ccccc3)cc2)CCC1` [MK-2206], for which the Kd in experiment [1], in experiment [2], in experiment [3], in experiment [4], in experiment [5] and in experiment [6] was > 30 µM (inactive) each time. Besides, the Kd in experiment [7], in [8] and in [9] was > 30 µM (inactive) in each case.

Consider `CN(C[C@@H]1COCCO1)S(=O)(=O)Nc1ccc2ccc3ncc(-c4cnn(C)c4)cc3c(=O)c2c1` [MK-2461], for which the Kd in [1], in experiment [2], in experiment [3], in experiment [4], in [5] and in [6] was > 30 µM (inactive) each time. Further, the Kd in experiment [7], in [8] and in experiment [9] was > 30 µM (inactive) throughout.

Turning to `Cn1cc(-c2cnc3ccc4ccc(CS(=O)(=O)NCc5ccccn5)cc4c(=O)c3c2)cn1` [MK-8033], the Kd in [1], in experiment [2], in experiment [3], in [4], in [5] and in experiment [6] was > 30 µM (inactive) in each case. In addition, the Kd in experiment [7], in experiment [8] and in experiment [9] was > 30 µM (inactive) each time.

Regarding `FC(F)(F)c1ccc(/C=C/c2nc(COc3ccc(CCCCn4ccnn4)cc3)co2)cc1` [MUBRITINIB], the Kd in experiment [1], in experiment [2], in experiment [3], in experiment [4], in [5] and in experiment [6] was > 30 µM (inactive) each time. Moreover, the Kd in experiment [7], in experiment [8] and in experiment [9] was > 30 µM (inactive) throughout.
